Data as given in patent US7169559B2, “LDL receptor-related proteins 1 and 2 and treatment of bone or cartilage conditions” (Fonterra Corporate Research and Development Ltd., priority 2002, dated 2007).

Columns and labels:
[1] = tested on: cultured osteoblastic cells; test: osteoblast proliferation (mitogenic/osteogenic effect); assay type: cell-based, rat, mouse, and human
Experimental: Osteoblasts were isolated from 20-day old fetal rat calvariae as previously described (Cornish et al. (1999) Amer. J. Physiol-Endocrinol. Metab. 277:E779–E783). Briefly, calvariae were excised and the frontal and parietal bones, free of suture and periosteal tissue, were collected. After washing, the calvariae were treated twice with 3 mL of 1 mg/mL collagenase for 7 minutes at 37° C. After discarding the supernatants from these two digestions, the calvariae were treated a further twice with 3 mL of 2 mg/mL collagenase (30 mins, 37° C.). The supernatants of the latter two digestions were pooled, centrifuged, and the cells washed. Cells were grown to confluence and then subcultured into 24 well plates. Cells were growth arrested in minimum essential medium (MEM)/0.1% bovine serum albumin for 24 h before harvest.
The human osteoblast-like osteosarcoma cell line SaOS-2 was maintained in DMEM (GIBCO 12100-046) supplemented with 2.2 g/L NaHCO3, 10% FBS, and 10 ml/L penicillin-streptomycin (GIBCO 15140-122). Cells were plated in 75 cm^2 flasks and when confluent used for total RNA isolation or proliferation assays.

[2] = tested on: bacterial; conditions: cited from earlier work

| Substance | osteogenic effect / osteogenic activity [1] | bacterial killing [2] | mitogenic effect on osteoblasts [1] |
| --- | --- | --- | --- |
| Lactoferricin | only a modest osteogenic effect | effective in bacterial killing |  |
| Transferrin: Transferrin, compared with lactoferrin as mitogen on osteoblasts [reference compound] |  |  | not a potent mitogen |
